# Measured values: patent US11230543B2, “Biaryl monobactam compounds and methods of use thereof for the treatment of bacterial infections” (priority 2015, dated 2022)
# Where a name gives a salt, the structure may show the parent alone.
# Key:
# Assay type in all cases: cell-based
# Conditions in all cases: lowest concentration inhibiting 95% of bacterial growth; in the presence of β lactamase inhibitor Relebactam 4 μg/mL; 35±2° C. for 22 hours; tested range 100 μM to 0.098 μM
# [1] = system: Klebsiella pneumoniae expressing KPC-1 (CL6569); experiment: Antibiotic activity: growth inhibitory concentration (OD600), Klebsiella pneumoniae CL6569
# Outline: (§1)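 Clinical strains at ~2×10^5 CFU/mL in cation-adjusted Mueller-Hinton II broth, with relebactam at 4 μg/mL final; compounds 100 μM to 0.098 μM final. After 22 hours at 35±2° C, OD600 read; MITC95 is lowest concentration giving 95% growth inhibition.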
# [2] = system: Acinetobacter baumannii expressing TEM-1, AmpC, and Oxa-24/40 (CL6188); experiment: Antibiotic activity: growth inhibitory concentration (OD600), Acinetobacter baumannii CL6188
# Experimental: (§2) Antibiotic Activity: Determination of Growth Inhibitory Concentration
# (§3) The concentrations of compounds required to inhibit the growth of various strains of bacteria were determined in an assay that assessed bacterial growth by measuring optical density at 600 nm (OD600). The bacterial strains tested included the clinical strains Escherichia coli expressing NDM-1 (CLB30016), Klebsiella pneumoniae expressing KPC-1 (CL6569), Acinetobacter baumannii expressing TEM-1, AmpC, and Oxa-24/40 (CL6188) and Pseudomonas aeruginosa expressing AmpC (CL5701). All compounds were tested in the presence of a β lactamase inhibitor (BLi, Relebactam) in 384-well microplates. The clinical strains were stored as frozen single use stocks, thawed and diluted into 1.1× cation-adjusted Mueller-Hinton II broth to achieve approximately 2×10^5 CFU/mL. Test compounds were dissolved in DMSO and diluted 1:50 in the assay, resulting in a final concentration range of 100 μM to 0.098 μM. […] At the end of the incubation, absorbance at 600 nm was determined using a spectrophotometer. Inhibition was quantitated by identifying the lowest concentration of test compound that was required to inhibit 95% of the growth of the bacteria. The results for Examples 1-126 are reported in Table I, expressed as the concentration of compound that inhibited 95% of bacterial growth (Minimum Inhibitory Threshold Concentration; MITC95).
# [3] = system: Escherichia coli expressing NDM-1 (CLB30016); experiment: Antibiotic activity: growth inhibitory concentration (OD600), Escherichia coli CLB30016
# Experimental: as §2, §3
# [4] = system: Pseudomonas aeruginosa expressing AmpC (CL5701); experiment: Antibiotic activity: growth inhibitory concentration (OD600), Pseudomonas aeruginosa CL5701
# Outline: as §1
compound,measurement,setting,value
"C[n+]1cc(-c2ccc(OC[C@H](O/N=C(\C(=O)N[C@@H]3C(=O)N(OS(=O)(=O)[O-])C3(C)C)c3csc(N)n3)C(=O)O)cc2)c(N)n1CCCN [Example 50, (S)-3-((Z)-2-(((S)-2-(4-(5-Amino-1-(3-aminopropyl)-2-methyl-1H-pyrazol-2-ium-4-yl)phenoxy)-1-carboxyethoxy)imino)-2-(2-aminothiazol-4-yl)acetamido)-2,2-dimethyl-4-oxoazetidin-1-yl sulfate]",KP_CL6569 MITC95,[1],0.3906 µM
same,AB_CL6188 MITC95,[2],3.125 µM
same,EC_CLB30016 MITC95,[3],6.25 µM
same,PA_CL5701 MITC95,[4],6.25 µM
"CC1(C)[C@H](NC(=O)/C(=N\O[C@@H](COc2ccc(-c3cn(CCCN)[n+](CC4(F)CNC4)c3)cc2)C(=O)O)c2csc(N)n2)C(=O)N1OS(=O)(=O)[O-] [Example 119, (S)-3-((Z)-2-(((S)-2-(4-(1-(3-aminopropyl)-2-((3-fluoroazetidin-3-yl)methyl)-1H-pyrazol-2-ium-4-yl)phenoxy)-1-carboxyethoxy)imino)-2-(2-aminothiazol-4-yl)acetamido)-2,2-dimethyl-4-oxoazetidin-1-yl sulfate]",KP_CL6569 MITC95,[1],0.3906 µM
same,PA_CL5701 MITC95,[4],6.25 µM
"C[n+]1nc(NCCCN)ccc1-c1ccc(OC[C@H](O/N=C(\C(=O)N[C@@H]2C(=O)N(OS(=O)(=O)[O-])C2(C)C)c2csc(N)n2)C(=O)O)cc1 [Example 122, (S)-3-((Z)-2-(((S)-2-(4-(3-((3-aminopropyl)amino)-1-methylpyridazin-1-ium-6-yl)phenoxy)-1-carboxyethoxy)imino)-2-(2-aminothiazol-4-yl)acetamido)-2,2-dimethyl-4-oxoazetidin-1-yl sulfate]",KP_CL6569 MITC95,[1],0.1953 µM
same,PA_CL5701 MITC95,[4],3.125 µM
"C[n+]1nc(-c2ccc(OC[C@H](O/N=C(\C(=O)N[C@@H]3C(=O)N(OS(=O)(=O)[O-])C3(C)C)c3csc(N)n3)C(=O)O)cc2)ccc1NCCCN [Example 123, (S)-3-((Z)-2-(((S)-2-(4-(6-((3-aminopropyl)amino)-1-methylpyridazin-1-ium-3-yl)phenoxy)-1-carboxyethoxy)imino)-2-(2-aminothiazol-4-yl)acetamido)-2,2-dimethyl-4-oxoazetidin-1-yl sulfate]",KP_CL6569 MITC95,[1],0.3906 µM
same,PA_CL5701 MITC95,[4],12.5 µM
"CC1(C)[C@H](NC(=O)/C(=N\O[C@@H](COc2ccc(-n3cc(CCCN)[n+](CC4(F)CNC4)c3)nc2)C(=O)O)c2csc(N)n2)C(=O)N1OS(=O)(=O)[O-] [Example 124, (S)-3-((Z)-2-(((S)-2-((6-(4-(3-aminopropyl)-3-((3-fluoroazetidin-3-yl)methyl)-1H-imidazol-3-ium-1-yl)pyridin-3-yl)oxy)-1-carboxyethoxy)imino)-2-(2-aminothiazol-4-yl)acetamido)-2,2-dimethyl-4-oxoazetidin-1-yl sulfate]",KP_CL6569 MITC95,[1],0.7813 µM
same,PA_CL5701 MITC95,[4],12.5 µM
"CC1(C)[C@H](NC(=O)/C(=N\O[C@@H](COc2ccc(-c3cc(CNCCN)n(CCCN)n3)cc2)C(=O)O)c2csc(N)n2)C(=O)N1OS(=O)(=O)O [Example 125, (S)-3-(4-(5-(((2-Aminoethyl)amino)methyl)-1-(3-aminopropyl)-1H-pyrazol-3-yl)phenoxy)-2-((((Z)-1-(2-aminothiazol-4-yl)-2-(((S)-2,2-dimethyl-4-oxo-1-(sulfooxy)azetidin-3-yl)amino)-2-oxoethylidene)amino)oxy)propanoic acid]",KP_CL6569 MITC95,[1],0.39 µM
same,PA_CL5701 MITC95,[4],3.125 µM
"CC1(C)[C@H](NC(=O)/C(=N\O[C@@H](COc2ccc(-c3cc(CN)n(CCCN)n3)cc2)C(=O)O)c2csc(N)n2)C(=O)N1OS(=O)(=O)O [Example 126, (S)-3-(4-(5-(Aminomethyl)-1-(3-aminopropyl)-1H-pyrazol-3-yl)phenoxy)-2-((((Z)-1-(2-aminothiazol-4-yl)-2-(((S)-2,2-dimethyl-4-oxo-1-(sulfooxy)azetidin-3-yl)amino)-2-oxoethylidene)amino)oxy)propanoic acid]",KP_CL6569 MITC95,[1],0.39 µM
same,PA_CL5701 MITC95,[4],3.125 µM
"(S)-3-((Z)-2-(((S)-2-(4-(2-(3-amino-2-fluoro-2λ^3-propyl)-1-(azetidin-3-ylmethyl)-1H-pyrazol-2-ium-4-yl)phenoxy)-1-carboxyethoxy)imino)-2-(2-aminothiazol-4-yl)acetamido)-2,2-dimethyl-4-oxoazetidin-1-yl sulfate [Example 121]",KP_CL6569 MITC95,[1],0.1953 µM
same,AB_CL6188 MITC95,[2],1.563 µM
same,EC_CLB30016 MITC95,[3],6.25 µM
same,PA_CL5701 MITC95,[4],1.563 µM
